Data taken from patent publication US6376470B1, “Polymer conjugates of ara-C and ara-C derivatives” (Enzon, Inc., priority 1999, dated 2002).

How the values were obtained:
[1] = test system: subcutaneous human non-small cell lung carcinoma (LX-1); experiment: In vivo efficacy against subcutaneous LX-1 tumor xenograft in nude mice; conditions: for Effectiveness in LX-1 solid tumor model (in words): Ara-C 100 mg/kg/dose, PEG-ara-C 20 mg/kg/dose (one fifth of native dose), i.v. x4; for Mean Vol. ± SEM at Day 24 / % Change ± SEM at Day 24 (mean percent change in individual tumor volumes from initial): LX-1 s.c. in nude mice, PEG-Ara-C 80 mg/kg; for Mean Vol. ± SEM at Day 24: i.v. x4 doses (day 1, 4, 7, 10), baseline 300 mm^3; for Mean Vol. ± SEM at Day 24 / % Change ± SEM at Day 24 (mean percent change in individual tumor volumes from initial) / T/C (%) at Day 7 / T/C (%) at Day 24 / Regression at Day 24 (#/Grp) / Complete Regression (#/Grp): total dose Ara-C 400 mg/kg; for % Change ± SEM at Day 24 (mean percent change in individual tumor volumes from initial): i.v. x4 doses; for T/C (%) at Day 7: median tumor volume treated vs control when control median approx. 1000 mm^3 (day 7); for T/C (%) at Day 7 / T/C (%) at Day 24 / Regression at Day 24 (#/Grp) / Complete Regression (#/Grp): PEG-Ara-C 80 mg/kg i.v.; for T/C (%) at Day 24: median tumor volume treated vs control when control median approx. 2400 mm^3 (day 24); for Regression at Day 24 (#/Grp): smaller tumor volume on day 24 compared to day 1
Method: Athymic nude mice were implanted subcutaneous with a 4-5 mm^3 tissue fragment of LX-1 collected from donor mice. The tumor trocar site was observed twice weekly and measured once palpable. […] The mice were sorted to evenly distribute tumor size, grouped into 6 to 7 mice per group, and ear punched for permanent identification. Drugs were administered intravenously every 3 days×4 doses (day 1, 4, 7 and 10) via the tail vein at an approximate rate of 0.5 mL per minute. […] Therefore, this study compares the PEG-conjugate at one fifth the native dose, and presumably much less than its MTD. Mouse weight and tumor size were measured at the beginning of study and twice weekly through week 4. Drug effectiveness were determined by comparing tumor growth in treated versus untreated (no vehicle) control mice. Five types of endpoints were used as the basis for comparison: (a) mean tumor volumes at day 24; (b) mean percent change in individual tumor volumes from initial; (c) percent difference in tumor volume (%T/C), measured when the control group's median tumor volume reached approximately 800-1100 mm^3 (exponential growth phase); (d) percent difference in tumor volume (%T/C) at day 24 and (e) the number of tumor regression (smaller tumor volume on day 24 compared to day 1) per group.

P388/0 = experiment: In vitro cytotoxicity assay (Alamar Blue), P388/0 cells; format: cell-based; conditions: 3 days incubation
Method: Cell Lines and Cytotoxicity Assays. Studies using P388/0 cell lines for IC50 (drug concentration inhibiting growth of cells by 50%) were maintained and conducted using standard procedures. Briefly, for IC50 determination, cells were seeded into the microwell plates at a density of 2×10^3 cells per 50 μL per well. Plates were incubated at 37° C. in a humidified incubator with 5% CO2 for 3 days. Cell growth was measured by the addition of 10 μL/well of Alamar Blue (Alamar Biosciences, Inc., Sacramento, Calif.) and the plates were incubated a further 4 hours at 37° C. The IC50 values for each compound were determined from absorbance versus dilution factor plots. All cell cultures for animal implantation were maintained at 37° C. in a humidified atmosphere of 5% CO2/[…] and subcultured once a week. All cell lines were periodically tested for Mycoplasma and were Mycoplasma free.

Compound	Effectiveness in LX-1 solid tumor model (in words) [1]	Mean Vol. ± SEM at Day 24 [1] [mm^3]	% Change ± SEM at Day 24 (mean percent change in individual tumor volumes from initial) [1] [%]	T/C (%) at Day 7 [1] [%]	T/C (%) at Day 24 [1] [%]	Regression at Day 24 (#/Grp) [1]	Complete Regression (#/Grp) [1]	IC50 (P388/0) [nM]	IC50 (P388/0; Mus musculus, 72 h) [nM]
PEG-amide-Ara-C [PEG-Ara-C]	significant tumor growth inhibition	2205.0	557.4	76.4	73.0	1/6	1/6	12	
Nc1ccn([C@@H]2O[C@H](CO)[C@@H](O)[C@@H]2O)c(=O)n1 [Ara-C, 1-(β-D-arabinofuranosyl)cytosine]	ineffective	3192.5	1514.8	112.2	144.6	0/7	0/7		10
Nc1ccn([C@@H]2O[C@H](CO)[C@@H](O)C2(F)F)c(=O)n1 [Gemcitabine, gemcitabine]									2
PEG-amide-Gemcitabine [PEG-Gemcitabine]								46	
